Results on 39 molecules are retold here after patent US20150141381A1, “TETRACYCLINE COMPOUNDS HAVING TARGET THERAPEUTIC ACTIVITIES” (Paratek Pharmaceuticals, Inc., priority 2001, published 2015).

Where two headings read alike, the source gives them in different places.

For test [1], the system named is E. coli mL308 225. Put plainly: In Vitro Anti-Bacterial Activity Assay (MIC), gram negative. In kind it is cell-based. The following applies: for MIC: Escherichia coli, ML308225, 18 h.
Test [2] concerns S. aureus RN450. The test can be described thus: In Vitro Anti-Bacterial Activity Assay (MIC), gram positive. In kind it is cell-based. To be noted: for MIC: Staphylococcus aureus, RN450, 18 h.
Where [3] appears, read: MIC class, Table 3, read-out: Antibiotic Activity Gram −.
The mark [4] stands for this setting: MIC class, Table 3, read-out: Antibiotic Activity Gram +.
Setting [5] is: gram negative bacteria, read-out: Antibiotic Activity Gram − (MIC).
The mark [6] stands for this setting: gram positive bacteria, read-out: Antibiotic Activity Gram + (MIC).
Where [7] appears, read: MIC class, Table 3 (Continued), read-out: Gram− activity.
The mark [8] stands for this setting: MIC class, Table 3 (Continued), read-out: Gram+ activity.

Regarding `CN(C)c1cc(CNCCC(F)(F)F)c(O)c2c1C[C@H]1C[C@H]3[C@H](N(C)C)C(O)=C(C(N)=O)C(=O)[C@@]3(O)C(O)=C1C2=O` [drawing 3690], the “Antibiotic Activity Gram − (MIC)” value in test [1] (gram negative bacteria) is on record as “** (compounds with MIC less than or equal to 4 μg/ml are indicated with **)”. Also, the “Antibiotic Activity Gram + (MIC)” value in test [2] (gram positive bacteria) is given as “** (compounds with MIC less than or equal to 4 μg/ml are indicated with **)”.
On to `CC(C)CNC(=N)Nc1cc(N(C)C)c2c(c1O)C(=O)C1=C(O)[C@]3(O)C(=O)C(C(N)=O)=C(O)[C@@H](N(C)C)[C@@H]3C[C@@H]1C2` [FB], for which the MIC in test [1] (setting [3]) and in test [2] (setting [4]) was > 4 µg/mL each time.
On to `CN(C)c1cc(CNC2C[C@H]3CC[C@@H]2C3)c(O)c2c1C[C@H]1C[C@H]3[C@H](N(C)C)C(O)=C(C(N)=O)C(=O)[C@@]3(O)C(O)=C1C2=O` (stereo partly drawn), for which the MIC in test [1] (setting [5]) and in test [2] (setting [6]) was < 4 µg/mL each time.
Take `CN(C)[C@@H]1C(O)=C(C(N)=O)C(=O)[C@@]2(O)C(O)=C3C(=O)c4c(O)ccc(-c5ccc(CNC#N)cc5)c4C[C@H]3C[C@@H]12`: the MIC in test [1] (setting [5]) and in test [2] (setting [6]) was < 4 µg/mL in each case.
In the case of `CN(C)[C@@H]1C(O)=C(C(N)=O)C(=O)[C@@]2(O)C(O)=C3C(=O)c4c(O)ccc(CNC(=O)c5cnoc5)c4C[C@H]3C[C@@H]12`, the MIC was > 4 µg/mL in test [1] (setting [5]) and < 4 µg/mL in test [2] (setting [6]).
In the same order, the values of `CNCOc1ccc(-c2ccc(O)c3c2C[C@H]2C[C@H]4[C@H](N(C)C)C(O)=C(C(N)=O)C(=O)[C@@]4(O)C(O)=C2C3=O)cc1` are < 4 µg/mL and < 4 µg/mL.
Take `CN(C)[C@@H]1C(O)=C(C(N)=O)C(=O)[C@@]2(O)C(O)=C3C(=O)c4c(O)ccc(-c5cc6ccccc6o5)c4C[C@H]3C[C@@H]12` [drawing 3387]: the MIC was > 4 µg/mL in test [1] (setting [5]) and < 4 µg/mL in test [2] (setting [6]).
As for `CN(C)[C@@H]1C(O)=C(C(N)=O)C(=O)[C@@]2(O)C(O)=C3C(=O)c4c(O)ccc(-c5cccc([N+](=O)[O-])c5)c4C[C@H]3C[C@@H]12`, the MIC in test [1] (setting [7]) and in test [2] (setting [8]) was < 4 µg/mL throughout.
With `CN(C)c1cc(CNNCC(F)(F)F)c(O)c2c1C[C@H]1C[C@H]3[C@H](N(C)C)C(O)=C(C(N)=O)C(=O)[C@@]3(O)C(O)=C1C2=O`, the MIC in test [1] (setting [5]) is > 4 µg/mL; in test [2] (setting [6]), < 4 µg/mL.
For `CN(C)c1cc(NC(=O)Oc2ccc(O)cc2)c(O)c2c1C[C@H]1C[C@H]3[C@H](N(C)C)C(O)=C(C(N)=O)C(=O)[C@@]3(O)C(O)=C1C2=O`, the MIC in test [1] (read-out: Antibiotic Activity Gram − (MIC)) and in test [2] (read-out: Antibiotic Activity Gram + (MIC)) was > 4 µg/mL in each case.
On to `CN(C)[C@@H]1C(O)=C(C(N)=O)C(=O)[C@@]2(O)C(O)=C3C(=O)c4c(O)c(N)cc(-c5ccccn5)c4C[C@H]3C[C@@H]12`, for which the MIC in test [1] (setting [5]) was > 4 µg/mL; in test [2] (setting [6]) it was < 4 µg/mL.
Take `CCOC(=O)CNC(=O)c1cccc(-c2ccc(O)c3c2C[C@H]2C[C@H]4[C@H](N(C)C)C(O)=C(C(N)=O)C(=O)[C@@]4(O)C(O)=C2C3=O)c1` [GS]: the figures for the MIC in test [1] (setting [3]) and in test [2] (setting [4]) were > 4 µg/mL and < 4 µg/mL, respectively.
As for `CCOC(=O)CNCc1ccc(-c2ccc(O)c3c2C[C@H]2C[C@H]4[C@H](N(C)C)C(O)=C(C(N)=O)C(=O)[C@@]4(O)C(O)=C2C3=O)c2ccccc12`, the MIC in test [1] (setting [5]) and in test [2] (setting [6]) was < 4 µg/mL each time.
Regarding `CN(C)c1cc(CN2CCC3CCCCC3C2)c(O)c2c1C[C@H]1C[C@H]3[C@H](N(C)C)C(O)=C(C(N)=O)C(=O)[C@@]3(O)C(O)=C1C2=O` (stereo partly drawn), the MIC in test [1] (setting [5]) and in test [2] (setting [6]) was < 4 µg/mL throughout.
In the case of `CN1CCN(Cc2ccc(-c3ccc(O)c4c3C[C@H]3C[C@H]5[C@@H](N(C)C)C(O)=C(C(N)=O)C(=O)[C@@]5(O)C(O)=C3C4=O)o2)CC1` [LN], the MIC in test [1] (setting [3]) and in test [2] (setting [4]) was < 4 µg/mL in each case.
Consider `CC(=O)Nc1ccc(-c2ccc(O)c3c2C[C@H]2C[C@H]4[C@H](N(C)C)C(O)=C(C(N)=O)C(=O)[C@@]4(O)C(O)=C2C3=O)cc1`, for which the MIC in test [1] (setting [5]) was > 4 µg/mL; in test [2] (setting [6]) it was < 4 µg/mL.
For the molecule `C[C@H]1c2ccc(NC3CCN(Cc4ccccc4)CC3)c(O)c2C(=O)C2=C(O)[C@]3(O)C(=O)C(C(N)=O)=C(O)[C@@H](N(C)C)[C@@H]3[C@@H](O)[C@@H]21` [JK], the MIC in test [1] (setting [3]) and in test [2] (setting [4]) was < 4 µg/mL each time.
In the case of `CN(C)[C@@H]1C(O)=C(C(N)=O)C(=O)[C@@]2(O)C(O)=C3C(=O)c4c(O)ccc(-c5ccc(F)cc5F)c4C[C@H]3C[C@@H]12` [AB], the figures for the MIC in test [1] (setting [3]) and in test [2] (setting [4]) were > 4 µg/mL and < 4 µg/mL, respectively.
Turning to `CCOC(=O)CNCc1ccc(OC)c(-c2ccc(O)c3c2C[C@H]2C[C@H]4[C@H](N(C)C)C(O)=C(C(N)=O)C(=O)[C@@]4(O)C(O)=C2C3=O)c1`, the MIC in test [1] (setting [5]) and in test [2] (setting [6]) was < 4 µg/mL throughout.
For the molecule `CN(C)C(=O)C(=O)c1ccc(O)c2c1C[C@H]1C[C@H]3C(N(C)C)C(O)=C(C(N)=O)C(=O)[C@@]3(O)C(O)=C1C2=O` (stereo partly drawn) [MR], the MIC in test [1] (setting [3]) and in test [2] (setting [4]) was < 4 µg/mL throughout.
For the molecule `CCc1cc(N)c(O)c2c1C[C@H]1C[C@H]3[C@H](N(C)C)C(O)=C(C(N)=O)C(=O)[C@@]3(O)C(O)=C1C2=O`, the MIC in test [1] (setting [5]) and in test [2] (setting [6]) was < 4 µg/mL each time.
In the case of `CCCN1CCC(Nc2ccc3c(c2O)C(=O)C2=C(O)[C@]4(O)C(=O)C(C(N)=O)=C(O)[C@@H](N(C)C)[C@@H]4[C@@H](O)[C@@H]2[C@H]3C)CC1` [KX], the MIC in test [1] (setting [3]) and in test [2] (setting [4]) was < 4 µg/mL throughout.
In the case of `CCC(=O)O[C@@H]1[C@H]2[C@H](N(C)C)C(O)=C(C(N)=O)C(=O)[C@@]2(O)C(O)=C2C(=O)c3c(O)cccc3C(C)[C@H]21` (stereo partly drawn), the MIC in test [1] (setting [7]) and in test [2] (setting [8]) was > 4 µg/mL throughout.
Consider `CCCOC(=O)Nc1ccc(-c2ccc(O)c3c2C[C@H]2C[C@H]4[C@H](N(C)C)C(O)=C(C(N)=O)C(=O)[C@@]4(O)C(O)=C2C3=O)cc1`, for which the MIC in test [1] (setting [5]) and in test [2] (setting [6]) was < 4 µg/mL in each case.
In the case of `CN(C)[C@@H]1C(O)=C(C(N)=O)C(=O)[C@@]2(O)C(O)=C3C(=O)c4c(O)ccc(-c5ccc6c(c5)OCO6)c4C[C@H]3C[C@@H]12` [drawing 3286], the MIC in test [1] (setting [7]) and in test [2] (setting [8]) was < 4 µg/mL each time.
With `COCCOC(=O)NCc1cc(N(C)C)c2c(c1O)C(=O)C1=C(O)[C@]3(O)C(=O)C(C(N)=O)=C(O)[C@@H](N(C)C)[C@@H]3C[C@@H]1C2`, the MIC is > 4 µg/mL in test [1] (setting [5]) and < 4 µg/mL in test [2] (setting [6]).
Regarding `CC(C)c1cccc(-c2ccc(O)c3c2C[C@H]2C[C@H]4[C@H](N(C)C)C(O)=C(C(N)=O)C(=O)[C@@]4(O)C(O)=C2C3=O)c1`, the MIC in test [1] (setting [5]) and in test [2] (setting [6]) was < 4 µg/mL throughout.
For `CN(C)c1cc(-c2ccc(CN3CCN(c4ccccc4F)CC3)o2)c(O)c2c1C[C@H]1C[C@H]3[C@H](N(C)C)C(O)=C(C(N)=O)C(=O)[C@@]3(O)C(O)=C1C2=O`, the MIC in test [1] (setting [5]) and in test [2] (setting [6]) was > 4 µg/mL throughout.
For the molecule `COc1cccc(C#Cc2ccc(O)c3c2C[C@H]2C[C@H]4[C@H](N(C)C)C(O)=C(C(N)=O)C(=O)[C@@]4(O)C(O)=C2C3=O)c1`, the MIC in test [1] (setting [7]) and in test [2] (setting [8]) was < 4 µg/mL in each case.
Turning to `CN(C)C1C(O)=C(C(N)=O)C(=O)[C@@]2(O)C(O)=C3C(=O)c4c(O)ccc(-c5ccc(CN6CCCC6)c6ccccc56)c4C[C@H]3C[C@@H]12` (stereo partly drawn) [GH], the MIC in test [1] (setting [3]) and in test [2] (setting [4]) was < 4 µg/mL each time.
On to `CN(C)c1cc(CNCc2ccc(C(=O)O)cc2)c(O)c2c1C[C@H]1C[C@H]3[C@H](N(C)C)C(O)=C(C(N)=O)C(=O)[C@@]3(O)C(O)=C1C2=O`, for which the MIC in test [1] (setting [5]) and in test [2] (setting [6]) was > 4 µg/mL in each case.
Turning to `CN(C)[C@@H]1C(O)=C(C(N)=O)C(=O)[C@@]2(O)C(O)=C3C(=O)c4c(O)ccc(CCCNS(C)(=O)=O)c4C[C@H]3C[C@@H]12` [CQ], the MIC was > 4 µg/mL in test [1] (setting [3]) and < 4 µg/mL in test [2] (setting [4]).
In the same order, the values of `CN1CCN(Cc2ccc(-c3ccc(O)c4c3C[C@H]3C[C@H]5[C@H](N(C)C)C(O)=C(C(N)=O)C(=O)[C@@]5(O)C(O)=C3C4=O)cc2)CC1` [MF] are < 4 µg/mL and < 4 µg/mL.
For `C[C@H]1c2ccc(N3CCCCC3)c(O)c2C(=O)C2=C(O)[C@]3(O)C(=O)C(C(N)=O)=C(O)[C@@H](N(C)C)[C@@H]3[C@@H](O)[C@@H]21` [JV], in that order: > 4 µg/mL and < 4 µg/mL.
As for `CN(C)[C@@H]1C(O)=C(C(N)=O)C(=O)[C@@]2(O)C(O)=C3C(=O)c4c(O)ccc(-c5ccc6c(c5)OCO6)c4C[C@H]3C[C@@H]12` [drawing 3479], the MIC in test [1] (setting [5]) and in test [2] (setting [6]) was < 4 µg/mL throughout.
With `CN(C)[C@@H]1C(O)=C(C(N)=O)C(=O)[C@@]2(O)C(O)=C3C(=O)c4c(O)ccc(-c5ccc(C(F)(F)F)cc5)c4C[C@H]3C[C@@H]12`, the MIC in test [1] (setting [7]) and in test [2] (setting [8]) was < 4 µg/mL in each case.
As for `COc1ccc(/C=C/c2ccc(O)c3c2C[C@H]2C[C@H]4[C@H](N(C)C)C(O)=C(C(N)=O)C(=O)[C@@]4(O)C(O)=C2C3=O)cc1OC`, the MIC in test [1] (setting [7]) and in test [2] (setting [8]) was < 4 µg/mL each time.
With `CN(C)[C@@H]1C(O)=C(C(N)=O)C(=O)[C@@]2(O)C(O)=C3C(=O)c4c(O)c(CNCC(C)(C)C)cc(-c5ccccn5)c4C[C@H]3C[C@@H]12`, the MIC in test [1] (setting [5]) was > 4 µg/mL; in test [2] (setting [6]) it was < 4 µg/mL.
Take `CC1c2ccc(-c3cc4ccccc4o3)c(O)c2C(=O)C2=C(O)[C@]3(O)C(=O)C(C(N)=O)=C(O)[C@@H](N(C)C)[C@@H]3[C@@H](O)[C@@H]21` (stereo partly drawn): the MIC in test [1] (setting [7]) and in test [2] (setting [8]) was < 4 µg/mL in each case.
